A short description of data set [1]: Intravenous. The conditions noted are these: for Cmax / AUC(0-t) / AUC(0-inf): both, human, in vivo; for AUC(0-t): AUC0-96, oral methadone; for AUC(0-inf): AUC0-∞; for AUC(0-inf) / Foral: oral methadone.
Data set [2] deals with CYP3A4. The conditions noted are these: cited from earlier work.
The conditions of data set [3]: both, human, in vivo, iv.
The test system of data set [4] is CYP2B6. As to conditions: cited from earlier work.
The conditions of data set [5]: cited from earlier work.
For data set [6] the following is noted: cited from earlier work. The source holds these as a separate data set.
In data set [7] the test system is healthy volunteers. As to conditions: 6.0 mg intravenous plus 11.0 mg oral methadone HCl.
The subject of data set [8] is CYP3A. The conditions noted are these: human, in vivo; cited from earlier work.
For data set [9], the system named is P-gp. The conditions noted are these: cited from earlier work.
In data set [10] the test system is P-gp. As to conditions: rats; cited from earlier work.

Where two headings read alike, the source gives them in different places.

For orientation: Cmax means the maximum level reached in the sampled fluid or tissue. One may read the AUC(0-t) as exposure summed from dosing to a finite time, without extrapolation to infinity. High values mean high exposure, low ones low exposure. As a reminder, the AUC(0-inf) is the area under the concentration-time curve extrapolated to infinity. A higher AUC(0-inf) goes with more exposure. The term Km denotes the substrate concentration at which the rate is half of its maximum. Regarding `CCC(=O)C(C[C@H](C)N(C)C)(c1ccccc1)c1ccccc1` [S-methadone], the Cmax in data set [1] (iv, 6 mg) worked out at 83 ± 39 ng/mL; in [1] (po, 11 mg), 30 ± 10 ng/mL. The AUC(0-t) amounted to 688 ± 169 ng·h/mL in data set [1] (po, 11 mg, control) and 685 ± 131 ng·h/mL in data set [1] (po, after indinavir). Moreover, the AUC(0-inf) in data set [1] (po, 11 mg, control) is 780 ± 200 ng·h/mL; in data set [1] (po, after indinavir) it was 805 ± 194 ng·h/mL. The Foral in data set [1] (after indinavir) turned out to be 0.90 ± 0.11; in [1] (control), 0.87 ± 0.10. Moreover, the Km in [2] is 149 µM; in [4], 16 µM. The same compound returned an EH in data set [3] of 0.06 ± 0.02.
Turning to `O=C1Nc2ccc(Cl)cc2[C@@](C#CC2CC2)(C(F)(F)F)O1` [efavirenz], in [5], the “methadone clearance, change” value is listed as “doubled”.
Turning to `CCC(=O)C(CC(C)N(C)C)(c1ccccc1)c1ccccc1` (stereo not shown) [methadone], in data set [6], the FG predicted is reported as 0.97 and the “FG, average in several investigations” value is 0.96. In [6] (intravenous methadone), the “EH, average” value is 0.09 and the fhep is given as 0.76. Further, in [7] (after indinavir), the “AUEC0-∞” value turned out to be 96± 56 mm•hr and the Maximum miosis was determined as 3.6 ± 1.0 mm. Moreover, in data set [7] (control), the “AUEC0-∞” value was found to be 87 ± 66 mm•hr and the Maximum miosis was determined as 3.6 ± 1.0 mm.
Take `Cc1c(O)cccc1C(=O)N[C@@H](CSc1ccccc1)[C@H](O)CN1C[C@H]2CCCC[C@H]2C[C@H]1C(=O)NC(C)(C)C` [nelfinavir]: in [8], the “inhibition of first-pass CYP3A” value is given as above 75% and the “inhibition of hepatic CYP3A” value is 50%. Also, the “fexofenadine Cmax, change” value in [9] is “decreased”.
On to `CO[C@H]1/C=C/O[C@@]2(C)Oc3c(C)c(O)c4c(O)c(c(/C=N/N5CCN(C)CC5)c(O)c4c3C2=O)NC(=O)/C(C)=C\C=C\[C@H](C)[C@H](O)[C@@H](C)[C@@H](O)[C@@H](C)[C@H](OC(C)=O)[C@@H]1C` [rifampin], for which, in [5], the “methadone clearance, change” value was “doubled”.
As for `CC(C)c1nc(CN(C)C(=O)N[C@H](C(=O)N[C@@H](Cc2ccccc2)C[C@H](O)[C@H](Cc2ccccc2)NC(=O)OCc2cncs2)C(C)C)cs1` [ritonavir], in data set [5], the “methadone clearance, change” value was “doubled”.
For the compound `C/C=C/C[C@@H](C)C(=O)[C@H]1C(=O)N[C@@H](C(C)C)C(=O)N(C)CC(=O)N(C)[C@@H](CC(C)C)C(=O)N[C@@H](C(C)C)C(=O)N(C)[C@@H](CC(C)C)C(=O)N[C@@H](C)C(=O)N[C@H](C)C(=O)N(C)[C@@H](CC(C)C)C(=O)N(C)[C@@H](CC(C)C)C(=O)N(C)[C@@H](C(C)C)C(=O)N1C` [valspodar], in [10], the “oral methadone bioavailability, change” value was “increased”.
`C[C@@H](c1ncncc1F)[C@](O)(Cn1cncn1)c1ccc(F)cc1F` [voriconazole]: in [5], the “R-methadone AUC, increase” value was 47% and the “S-methadone AUC, increase” value is listed as 103%.
